In the test the test system is Mycobacterium tuberculosis H37Rv growth inhibition, no glycerol. In words: Mycobacterium tuberculosis H37Rv growth inhibition, no glycerol, confirmatory dose response (AID 449764).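 As to all read-outs here: growth read after 7 days of incubation.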 Conditions: for IC90: measured here: IC90 growth inhibition.

The values that follow come from PubChem BioAssay AID449764 (Southern Research Specialized Biocontainment Screening …, 2010).

In the case of `CSc1nn(-c2ccc(C(=O)OCC(=O)NC(=O)NC(C)C)cc2)c(=S)s1`, the 50% inhibitory concentration (IC50) (as a rule, the concentration that inhibits the measured activity by half) is 35.7 µM and the IC90 (in general, the point of the concentration-response curve where the effect stands at 90%) is 48.9 µM.

With `CSc1nsc(SCC(=O)N2CCCCC2)n1`, the IC50 was 8.65 µM and the IC90 was 12.9 µM.

Regarding `CC(O)CNc1nc2ccccc2n1-c1ncnc2sc3c(c12)CCC3` (stereo not drawn), the IC50 is 35.2 µM and the IC90 was 42.1 µM.

`Brc1ccc2c(c1)C(OC1CN3CCC1CC3)c1ccccc1CS2` (stereo not drawn): the IC50 was 26.3 µM and the IC90 was found to be 36.4 µM.

`COC(=O)c1c(NC(=S)NN2CCN(C)CC2)sc2c1CCC(C)C2` (stereo not drawn): the half-inhibitory concentration (IC50) was 22.8 µM and the IC90 was found to be 26.6 µM.

Take `Oc1ccccc1/C=N/Nc1ccnc(SCc2ccccc2)n1`: the IC50 is 2.69 µM and the IC90 stood at 2.95 µM.

As to `c1ccc(-c2ccc(C(c3ccccc3)n3ccnc3)cc2)cc1` (stereo not drawn), the IC50 is 23.2 µM and the IC90 stood at 26.4 µM.

In the case of `COc1ccc(-c2ccc(-c3noc(C(C)C)n3)c(OC)n2)cc1`, the IC50 is 40.3 µM and the concentration for an effect of 90% (IC90) stood at 54.6 µM.

Regarding `O=C(N[C@H]1CCC(=O)N(CCSc2ccc(Br)cc2)CC1)OCc1ccccc1`, the IC50 was 32.9 µM and the IC90 is 46.6 µM.

Turning to `CCC(=O)NC(=S)Nc1ccc(NC(=O)COc2ccc(Cl)cc2Cl)cc1`, the IC50 is 79.3 µM and the IC90 is more than 100 µM.

For `C/C(=N\NC(=O)COc1ccc(C)cc1Br)c1cc([N+](=O)[O-])cs1`, the concentration for half-maximal inhibition (IC50) was 24 µM and the IC90 was determined as 26.4 µM.

Take `C=CCOc1ccccc1CN(C(=O)CCl)c1ccc2c(c1)OCO2`: the IC50 was 2.7 µM and the IC90 worked out at 3.72 µM.

With `CCc1cc2c(=O)c(-c3cnn(-c4ccccc4)c3)c(C)oc2c(CN2CCCCC2)c1O`, the IC50 was 32.4 µM and the IC90 was found to be 52.4 µM.

Regarding `CCc1ccc2c(c1)/C(=C/C(=O)c1cccs1)C(=O)N2`, the IC50 was 2.55 µM and the IC90 stood at 4.12 µM.

`COc1ccccc1C1CC(c2c(-c3ccccc3)c3cc(Cl)ccc3[nH]c2=O)=NN1S(C)(=O)=O` (stereo not drawn): the IC90 was more than 100 µM.

As to `O=C(NC1CCN(C(=O)N2c3ccccc3Sc3ccccc32)CC1)c1ccccc1F`, the IC90 was more than 100 µM.

`CCCSc1nnc(Sc2nnnn2-c2ccccc2)s1`: the IC50 is 22.5 µM and the IC90 turned out to be 38.8 µM.

Consider `Cc1cc(Br)ccc1NC(=O)c1cnc(N2CCN(c3ccccn3)CC2)c2ccccc12`, for which the IC50 is 2.34 µM and the IC90 was found to be 3.49 µM.

With `COc1cc(OC)c(OC)cc1CCC(C)NCCC(c1ccccc1)c1ccccc1` (stereo not drawn), the half-inhibitory concentration (IC50) was 23.4 µM and the IC90 stood at 26.7 µM.

Regarding `Oc1c(C(c2ccccc2Cl)N2CCCC2)ccc2cccnc12` (stereo not drawn), the IC50 is 31.2 µM and the IC90 is 37.7 µM.

In the case of `COC(=O)CSc1ncnc2c1cnn2-c1ccc(C)cc1C`, the IC50 was 6.02 µM and the IC90 stood at 6.82 µM.

With `O=C(CCc1c[nH]c2ccccc12)N1CCN(S(=O)(=O)c2ccccc2)CC1`, the IC50 is 78.7 µM and the IC90 was more than 100 µM.

On to `CC(=O)Nc1sc2c(c1-c1nc3ccccc3s1)CCN(C(C)C)C2`, for which the half-maximal inhibitory concentration (IC50) is 8.64 µM and the IC90 worked out at 11.2 µM.

Turning to `c1ccc(CN2CCN(CCCNc3ccc4nnc(-c5ccccc5)n4n3)CC2)cc1`, the IC50 is 22.1 µM and the IC90 worked out at 25.3 µM.

Turning to `O=C(CCc1nnc(CCCc2ccccc2)o1)NCCCC1CCCC1`, the IC50 is 21.5 µM and the IC90 was found to be 24.9 µM.

On to `Cc1ccc(C(=O)O/N=C\c2ccc(N3CCCCC3)c([N+](=O)[O-])c2)cc1`, for which the 50% inhibitory concentration (IC50) is 53.4 µM and the IC90 is more than 100 µM.

Regarding `CC(=O)n1cc(/C=C2/N=C(c3ccccc3)OC2=O)c2ccccc21`, the IC50 was 43.4 µM and the IC90 was more than 100 µM.

Consider `O=C(CSc1ccccn1)Nc1nonc1[N+](=O)[O-]`, for which the IC50 is 5.73 µM and the IC90 is 6.24 µM.

`CC1CC(C)CN(C(=O)C2CCC(CNc3c(N4CCCCC4)c(=O)c3=O)CC2)C1` (stereo not drawn): the half-maximal inhibitory concentration (IC50) was 45.8 µM and the IC90 is more than 100 µM.

`COc1ccccc1Nc1nc(N)nc(CCl)n1`: the IC50 is 4.83 µM and the IC90 came out at 12.3 µM.

As for `CC1(C)CC(=O)C2=C(C1)OC(N)=C([N+](=O)[O-])C2c1ccc(C#N)s1` (stereo not drawn), the IC50 is 79.7 µM and the 90% effect concentration (IC90) was found to be 97.7 µM.

In the case of `Cc1cc(C2N=C(N)Nc3nc4ccccc4n32)c(C)n1-c1ccccc1Cl` (stereo not drawn), the IC50 is 17.3 µM and the 90% effect concentration (IC90) amounted to 21.4 µM.

On to `Clc1ccc(NNc2ccnc3cc(Cl)ccc23)cc1`, for which the IC50 was 15.4 µM and the IC90 amounted to 19.9 µM.

For the compound `COc1ccccc1OC(=O)c1ccc(S(=O)(=O)N(C)C)cc1`, the IC50 was 16.4 µM and the 90% effect concentration (IC90) turned out to be 35.8 µM.

With `COc1ccc(C2c3[nH]c4ccccc4c3CCN2C(=O)c2cc3ncccn3n2)c(F)c1` (stereo not drawn), the concentration for an effect of 90% (IC90) is more than 100 µM.

As to `Cc1ccc(C)c(-c2nnc(NC(=O)C3=COCCO3)o2)c1`, the IC50 is 13.9 µM and the IC90 is 30.2 µM.

As to `S=C(NCCc1ccccc1)NN=C1CCCCCC1`, the IC50 was 45.8 µM and the IC90 was 50.1 µM.

For `COc1cc(/C=C2\C(=O)N(c3ccc(S(N)(=O)=O)cc3)N=C2C)ccc1OC(=O)c1ccco1`, the IC50 is 22.6 µM and the IC90 came to 26.1 µM.

`Cc1ccc(-c2nc3c(c(=O)c4ccccc4n3C)c(=O)n2Cc2ccco2)cc1`: the IC50 was 25.1 µM and the IC90 stood at 40.2 µM.

In the case of `O=C1Nc2ccc(Br)cc2/C1=C/C(=O)c1ccc2c(c1)OCO2`, the IC50 is 18.1 µM and the IC90 came to 23.7 µM.

Turning to `CC(C)Cn1c([N+](=O)[O-])nc2c1c(=O)[nH]c(=O)n2C`, the IC50 is 9.69 µM and the IC90 came out at 14.5 µM.

`CC(C)Cn1c(N2CCN(C(=O)/C=C/c3ccccc3)CC2)nc2ccccc21`: the IC50 is 34 µM and the IC90 was determined as 47.4 µM.

Take `Cc1ccc(S(=O)(=O)NNC(=O)c2cc([N+](=O)[O-])c(C)c([N+](=O)[O-])c2)cc1`: the half-maximal inhibitory concentration (IC50) was 10.5 µM and the IC90 was 13.8 µM.

Turning to `Oc1ccc(Nc2nc(-c3ccc4ccccc4c3)cs2)cc1`, the IC50 was 82.4 µM and the IC90 was more than 100 µM.

`O=C1c2ccccc2S(=O)(=O)c2cc(C(=O)N3CCN(c4c(Cl)cncc4Cl)CC3)ccc21`: the half-inhibitory concentration (IC50) was 34.8 µM and the IC90 worked out at 52.2 µM.

For `CC(C)(C)C1CCc2nc(NC(=O)Cc3cn4ccsc4n3)sc2C1` (stereo not drawn), the IC50 is 24.3 µM and the IC90 was determined as 35.4 µM.

On to `c1ccc2sc(Sc3ncnc4sccc34)nc2c1`, for which the IC50 was 11.4 µM and the IC90 amounted to 12.9 µM.

As for `COC(=O)c1cc(/C=C/c2ccccc2)on1`, the concentration for half-maximal inhibition (IC50) is 29.3 µM and the IC90 was more than 100 µM.

Consider `COC(=O)c1ccc(NC(=S)NC(=O)C2CCC2)cc1`, for which the IC50 was 43.6 µM and the 90% effect concentration (IC90) was more than 100 µM.

Consider `Cn1c(-c2c(N)n(CCc3ccccc3)c3nc4ccccc4nc23)nc2ccccc21`, for which the IC50 was 17.9 µM and the IC90 was more than 100 µM.

On to `CCCCn1c(NCc2ccc3c(c2)OCO3)nc2ccccc21`, for which the IC50 is 23.5 µM and the IC90 amounted to 25.9 µM.

`CCN(CC(=O)NCc1cccs1)C(=O)c1ccc([N+](=O)[O-])o1`: the IC50 was 91.9 µM and the IC90 is more than 100 µM.

`S=C(NCCN1CCOCC1)N/N=C/c1cccs1`: the IC50 is 6.31 µM and the IC90 was found to be 7.16 µM.
